Values of other authors in patent publication US7521425B2, “Anti-angiogenic compounds” (Covx Technologies Ireland Limited, priority 2005, dated 2009).
pKd: −log10 of the molar value.

Key:
m38C2 = conditions: against immobilized BSA-conjugated β-diketone 1, read-out: apparent equilibrium dissociation constant
h38C2 = conditions: against immobilized BSA-conjugated β-diketone 1, read-out: apparent equilibrium dissociation constant

Compound	pKd (m38C2)	pKd (h38C2)
CC(=O)CC(C)=O [β-diketone 2]	4.42	5.12
CC(=O)CC(=O)CCc1ccccc1 [β-diketone 3]	6.37	6.00
